In US10442796B2, “2,3,5-substituted thiophene compound as protein kinase inhibitor” (KOREA INSTITUTE OF SCIENCE AND TECHNOLOGY, priority 2016, dated 2019):
Changes are numbered by the printed parent chain. Where a name gives a salt, the structure may show the parent alone.

How the values were obtained:
[1] = biological target: T1, FLT3-ITD-F691L Ba/F3 cells (Homo sapiens, UniProt P36888, F691L, cells depend on it, form not given); assay: Growth inhibitory activity against Ba/F3 cell line; assay type: cell-based; conditions: Ba/F3 expressing FLT3-ITD-F691L; 72 hours; cell titer glo; read-out: IC50 (uM) FLT3-ITD-F691L
T1 sequence (P36888 1-993 F691L): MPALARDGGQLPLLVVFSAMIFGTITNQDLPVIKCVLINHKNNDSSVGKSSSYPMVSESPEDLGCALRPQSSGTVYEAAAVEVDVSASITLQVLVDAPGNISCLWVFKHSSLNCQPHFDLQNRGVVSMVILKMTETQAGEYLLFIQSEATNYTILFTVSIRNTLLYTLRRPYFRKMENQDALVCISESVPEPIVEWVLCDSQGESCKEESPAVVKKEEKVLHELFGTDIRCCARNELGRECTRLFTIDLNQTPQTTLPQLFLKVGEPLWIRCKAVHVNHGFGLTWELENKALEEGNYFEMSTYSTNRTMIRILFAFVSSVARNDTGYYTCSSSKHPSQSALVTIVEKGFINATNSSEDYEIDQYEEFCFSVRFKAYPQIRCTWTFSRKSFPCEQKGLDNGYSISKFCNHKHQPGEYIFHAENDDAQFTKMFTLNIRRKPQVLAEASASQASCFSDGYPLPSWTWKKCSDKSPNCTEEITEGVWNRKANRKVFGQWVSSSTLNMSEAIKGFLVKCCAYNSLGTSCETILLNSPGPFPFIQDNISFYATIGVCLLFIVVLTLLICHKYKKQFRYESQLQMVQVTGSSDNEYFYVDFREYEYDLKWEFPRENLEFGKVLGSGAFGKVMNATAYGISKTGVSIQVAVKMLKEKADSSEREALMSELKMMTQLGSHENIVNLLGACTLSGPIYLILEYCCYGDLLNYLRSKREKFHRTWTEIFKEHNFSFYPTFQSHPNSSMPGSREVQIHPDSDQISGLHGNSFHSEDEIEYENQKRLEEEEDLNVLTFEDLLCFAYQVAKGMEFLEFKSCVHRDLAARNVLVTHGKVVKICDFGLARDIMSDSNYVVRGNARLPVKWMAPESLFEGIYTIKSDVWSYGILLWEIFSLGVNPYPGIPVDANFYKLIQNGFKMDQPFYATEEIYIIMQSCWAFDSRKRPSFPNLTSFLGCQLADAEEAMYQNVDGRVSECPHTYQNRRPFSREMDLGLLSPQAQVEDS
Summary of the method: (§1)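 Ba/F3 cells carrying FLT3 mutants grown in RPMI with 10% FBS, exposed 72 h to ten 3-fold dilutions of compound starting from 1 mM DMSO stock. Viability read by CellTiter-Glo luminescence; GI50 fitted from signal versus final concentration.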

FLT3-D835Y Ba/F3 cells = biological target: T2, FLT3-D835Y Ba/F3 cells (Homo sapiens, UniProt P36888, D835Y, cells depend on it); assay: Growth inhibitory activity against Ba/F3 cell line; assay type: cell-based; conditions: Ba/F3 expressing FLT3-D835Y; 72 hours; cell titer glo; read-out: IC50 (uM) FLT3-D835Y
T2 sequence (P36888 1-993 D835Y): T1 sequence (P36888 1-993 F691L) with L691F, D835Y
Summary of the method: as §1

Row | GI50 [1] [µM] | GI50 (FLT3-D835Y Ba/F3 cells) [µM] | Compound
1 | 0.848 | 0.925 | NC(=O)Nc1cc(C#Cc2cccc(F)c2)sc1C(=O)NC1CCNC1 (stereo not drawn) [Example 40, 5-((3-fluorophenyl)ethynyl)-N-(pyrrolidin-3-yl)-3-ureidothiophene-2-carboxamide]
2 | 0.004 | 0.003 | N#Cc1ccc(C#Cc2cc(NC(N)=O)c(C(=O)N[C@H]3CCCNC3)s2)cc1 [Example 11, (S)-5-((4-cyanophenyl)ethynyl)-N-(piperidin-3-yl)-3-ureidothiophene-2-carboxamide]
3 | 0.005 | 0.003 | NC(=O)Nc1cc(C#Cc2ccc(F)cc2)sc1C(=O)N[C@H]1CCCNC1 [Example 9, (S)-5-((4-fluorophenyl)ethynyl)-N-(piperidin-3-yl)-3-ureidothiophene-2-carboxamide]
4 | 1.34 | 0.841 | COCCn1cc(C#Cc2cc(NC(N)=O)c(C(=O)N[C@H]3CCCCNC3)s2)cn1 [Example 45, (S)—N-(azepan-3-yl)-5-((1-(2-methoxyethyl)-1H-pyrazol-4-yl)ethynyl)-3-ureidothiophene-2-carboxamide trifluoroacetate]
5 | 7.47 | 11.5 | NC(=O)Nc1cc(CCc2cccc(F)c2)sc1C(=O)N[C@H]1CCCCNC1 [Example 54, (S)—N-(azepan-3-yl)-5-(3-fluorophenethyl)-3-ureidothiophene-2-carboxamide]
6 | 0.022 | 0.014 | NC(=O)Nc1cc(C#Cc2ccc(F)nc2)sc1C(=O)N[C@H]1CCCNC1 [Example 13, (S)-5-((6-fluoropyridin-3-yl)ethynyl)-N-(piperidin-3-yl)-3-ureidothiophene-2-carboxamide]
7 | 0.2 | 0.3 | CCn1cc(C#Cc2cc(NC(N)=O)c(C(=O)N[C@H]3CCCCNC3)s2)cn1 [Example 43, (S)—N-(azepan-3-yl)-5-((l-ethyl-1H-pyrazol-4-yl)ethynyl)-3-ureidothiophene-2-carboxamide trifluoroacetate]
8 | 0.069 | 0.064 | NC(=O)Nc1cc(C#Cc2ccc(C(F)(F)F)nc2)sc1C(=O)N[C@H]1CCCNC1 [Example 17, (S)—N-(piperidin-3-yl)-5-((6-(trifluoromethyl)pyridin-3-yl)ethynyl)-3-ureidothiophene-2-carboxamide]
9 | 0.645 | 0.533 | CS(=O)(=O)N1CCC(n2cc(C#Cc3cc(NC(N)=O)c(C(=O)N[C@H]4CCCCNC4)s3)cn2)CC1 [Example 47, (S)—N-(azepan-3-yl)-5-((1-(1-(methylsulfonyl)piperidin-4-yl)-1H-pyrazol-4-yl)ethynyl)-3-ureidothiophene-2-carboxamide trifluoroacetate]
10 | 1.39 | 1.61 | NC(=O)Nc1cc(CCc2cccc(F)c2)sc1C(=O)N[C@H]1CCCNC1 [Example 53]
11 | 0.062 | 0.039 | NC(=O)Nc1cc(C#Cc2cccc([N+](=O)[O-])c2)sc1C(=O)N[C@H]1CCCNC1 [Example 5, (S)-5-((3-nitrophenyl)ethynyl)-N-(piperidin-3-yl)-3-ureidothiophene-2-carboxamide]
12 | 0.083 | 0.067 | NC(=O)Nc1cc(C#Cc2ccsc2)sc1C(=O)N[C@H]1CCCCNC1 [Example 48, (S)—N-(azepan-3-yl)-5-(thiophen-3-ylethynyl)-3-ureidothiophene-2-carboxamide trifluoroacetate]
13 | 0.267 | 0.18 | CS(=O)(=O)N1CCC(n2cc(C#Cc3cc(NC(N)=O)c(C(=O)N[C@H]4CCCNC4)s3)cn2)CC1 [Example 23, (S)-5-((1-(1-(methylsulfonyl)piperidin-4-yl)-1H-pyrazol-4-yl)ethynyl)-N-(piperidin-3-yl)-3-ureidothiophene-2-carboxamide]
14 | 0.066 | 0.041 | NC(=O)Nc1cc(C#Cc2ccccn2)sc1C(=O)N[C@H]1CCCNC1 [Example 10, (S)—N-(piperidin-3-yl)-5-(pyridin-2-ylethynyl)-3-ureidothiophene-2-carboxamide]
15 | 0.055 | 0.041 | N#Cc1cccc(C#Cc2cc(NC(N)=O)c(C(=O)N[C@H]3CCCNC3)s2)c1 [Example 6, (S)-5-((3-cyanophenyl)ethynyl)-N-(piperidin-3-yl)-3-ureidothiophene-2-carboxamide]
16 | > 100 | > 33 | Cn1cc(CCc2cc(NC(N)=O)c(C(=O)N[C@H]3CCCCNC3)s2)cn1 [Example 52, (S)—N-(azepan-3-yl)-5-(2-(1-methyl-1H-pyrazol-4-yl)ethyl)-3-ureidothiophene-2-carboxamide trifluoroacetate]
17 | 0.487 | 0.289 | NC(=O)Nc1cc(C#Cc2n[nH]c3ccccc23)sc1C(=O)N[C@H]1CCCNC1 [Example 12, (S)-5-((1H-indazol-3-yl)ethynyl)-N-(piperidin-3-yl)-3-ureidothiophene-2-carboxamide]
18 | 5.23 | 4.01 | NC(=O)Nc1cc(C#Cc2cn[nH]c2)sc1C(=O)N[C@H]1CCCCNC1 [Example 42, (S)-5-((1H-pyrazol-4-yl)ethynyl)-N-(azepan-3-yl)-3-ureidothiophene-2-carboxamide trifluoroacetate]
19 | 0.023 | 0.011 | COC(=O)c1ccc(C#Cc2cc(NC(N)=O)c(C(=O)N[C@H]3CCCNC3)s2)cc1 [Example 18, methyl (S)-4-((5-(piperidin-3-ylcarbamoyl)-4-ureidothiophen-2-yl)ethynyl)benzoate trifluoroacetate]
20 | 0.058 | 0.039 | Cc1ccc(C#Cc2cc(NC(N)=O)c(C(=O)N[C@H]3CCCNC3)s2)cc1 [Example 24, (S)—N-(piperidin-3-yl)-5-(p-tolylethynyl)-3-ureidothiophene-2-carboxamide]
21 | 0.174 | 0.228 | NC(=O)Nc1cc(C#Cc2cccc(F)c2)sc1C(=O)N[C@H]1CCCCNC1 [Example 50, (S)—N-(azepan-3-yl)-5-((3-fluorophenyl)ethynyl)-3-ureidothiophene-2-carboxamide]
